Experimental data taken from PMC3328449, “Inhibition of Diacylglycerol–Sensitive TRPC Channels by Synthetic and Natural Steroids” (PLoS ONE, 2012).

Tests used:
[1] = molecular target: T1, mTRPC4ß (Mus musculus, UniProt Q9QUQ5); assay: Trypsin-induced Ca2+ entry, fluo-4 fluorometric imaging plate reader, TRPC4 HEK-FITR cells; format: cell-based
T1 construct: expressed in transfected cells
T1 sequence (Q9QUQ5 1-890 isoform Q9QUQ5-2): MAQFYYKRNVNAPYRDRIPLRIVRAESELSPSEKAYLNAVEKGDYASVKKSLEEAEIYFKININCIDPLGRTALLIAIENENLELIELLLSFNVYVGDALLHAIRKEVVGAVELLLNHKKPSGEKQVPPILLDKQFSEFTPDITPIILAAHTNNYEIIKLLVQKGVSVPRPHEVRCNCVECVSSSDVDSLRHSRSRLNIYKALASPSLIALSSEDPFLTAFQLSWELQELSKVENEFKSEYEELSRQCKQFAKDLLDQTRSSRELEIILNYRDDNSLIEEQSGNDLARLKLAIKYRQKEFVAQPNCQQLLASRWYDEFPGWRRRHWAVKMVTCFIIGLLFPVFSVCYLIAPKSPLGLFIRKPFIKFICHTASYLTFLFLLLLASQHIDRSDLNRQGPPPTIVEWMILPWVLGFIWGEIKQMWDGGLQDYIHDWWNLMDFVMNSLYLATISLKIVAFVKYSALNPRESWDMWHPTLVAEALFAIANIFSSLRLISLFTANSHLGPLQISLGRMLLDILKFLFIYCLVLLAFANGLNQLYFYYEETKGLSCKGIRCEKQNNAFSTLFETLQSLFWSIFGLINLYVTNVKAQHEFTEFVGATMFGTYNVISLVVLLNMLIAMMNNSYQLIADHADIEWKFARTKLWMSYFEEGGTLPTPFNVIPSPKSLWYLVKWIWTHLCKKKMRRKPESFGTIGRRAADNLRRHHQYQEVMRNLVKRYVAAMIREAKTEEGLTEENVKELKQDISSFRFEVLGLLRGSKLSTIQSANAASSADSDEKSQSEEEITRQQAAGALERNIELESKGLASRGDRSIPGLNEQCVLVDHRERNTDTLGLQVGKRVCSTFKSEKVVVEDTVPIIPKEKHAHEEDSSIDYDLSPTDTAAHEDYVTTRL
Protocol: Cells were grown at 37°C in a humidified atmosphere (5% or 7% CO2) under standard cell culture conditions. Stable human embryonic kidney (HEK) cell lines expressing recombinant mTRPC4ß (GenBank accession number AAC05178); mTRPC5 (GenBank accession number NM_009428) or hTRPC6 (GenBank accession number AF080394) under the control of a tetracycline-inducible promoter were generated using the Flp-In T-Rex (FITR) system (Invitrogen, Karlsruhe, Germany). […]
Cells grown to an almost confluent monolayer on black poly-D-lysine coated 96-well plates (Greiner, Frickenhausen, Germany) were washed with standard extracellular solution (140 mM NaCl, 1 mM MgCl2, 5.4 mM KCl, 2 mM CaCl2, 10 mM HEPES, 10 mM glucose, pH 7.35) and stained (30 min, room temperature) with dye solution (2 µM fluo-4 AM, 0.02% pluronic F127, 0.1% bovine serum albumin in standard extracellular solution). […] Fluo-4 fluorescence was excited at 488 nm with an argon laser and measured using a fluorometric imaging plate reader (Molecular Devices, Sunnyvale, USA). […]
TRPC4- and TRPC5-mediated Ca^2+ influx was stimulated by application of trypsin that activates endogenous Gq-coupled protease activated receptors in HEK cells. […] Compound effects were then calculated from the area under the curve and normalized to the Ca^2+ influx into trypsin-stimulated, non-compound-treated cells. […]

[2] = test system: rat aortic rings; assay: Isometric force measurement, relaxation of phenylephrine pre-contracted rat aortic rings; details: L-NAME treated, n = 6, read-out: EC50, vasorelaxation of pre-contracted aortic rings
Protocol: Adult male Wistar-Unilever rats (8–11 weeks old; Harlan Winkelmann, Borchen, Germany) were sacrificed by decapitation. Thoracic aortas were excised quickly, transferred to cold (4°C), carbogen (95% O2 and 5% CO2) bubbled physiological salt solution (119 mM NaCl, 4.7 mM KCl, 1.2 KH2PO4, 1.2 mM MgSO4, 1.6 mM CaCl2, 25 mM NaHCO3, 11 mM glucose) and rinsed. After removal of connective tissue and perivascular fat aortas were dissected in 5 mm rings, connected to force transducers and equilibrated in carbogen bubbled physiological salt solution at 37°C for 15 min. Aortic rings were set at 1000 mg passive tension and contractile forces were then measured isometrically using standard bath procedures as described earlier. […]
For statistical analysis, analysis of variance was performed with Origin 6.0 software (Microcal Software Inc., Northampton, USA). […] IC50 were calculated with SigmaPlot (Systat software, San Jose, USA) using the sigmoidal Hill-model: f = 100 (C^n/(IC50 ^n+C^n)); where f is the inhibition, C is the applied drug concentration and n is the Hill coefficient. The half maximal effective concentration (EC50) of norgestimate-induced vasorelaxation was calculated analogously with R = y0+y1C^n/(EC50 ^n+C^n); where R is relaxation, yo and y1 are constants, C is the applied drug concentration and n is the Hill coefficient. Averaged data is expressed as means ± SEM.

Row | SMILES | IC50 ([1]; TRPC4 HEK-FITR cells, fluo-4, 200 nM trypsin, read-out: IC50, inhibition of trypsin-induced Ca2+ entry via TRPC4) | Hill slope n, inhibition of TRPC4-mediated Ca2+ entry ([1]; fit to Hill model) | EC50 [2]
1 | CC(=O)[C@H]1CC[C@H]2[C@@H]3CCC4=CC(=O)CC[C@]4(C)[C@H]3CC[C@]12C [progesterone] | 6.2 µM | 1.15 | –
2 | C#C[C@]1(OC(C)=O)CC[C@H]2[C@@H]3CCC4=CC(=NO)CC[C@@H]4[C@H]3CC[C@@]21CC (mixture of isomers) [norgestimate] | – | – | 8.19 µM
